Data: US12016858B2, “Methods for the treatment of abnormal involuntary movement disorders” (AUSPEX PHARMACEUTICALS, INC., priority 2015, dated 2024)
Like-named read-outs stand apart in the source and are kept apart here.

Tested on: subjects with chorea associated with HD
[1] = Baseline to Maintenance Therapy, N = 45
[2] = baseline to maintenance therapy
[3] = much or very much improved, Week 12, N = 45

Method: First-HD was a randomized, double-blind, placebo-controlled, parallel-group study designed to evaluate the efficacy, safety, and tolerability of deutetrabenazine in subjects with chorea associated with HD. This trial was conducted in the United States and Canada, in collaboration with the Huntington Study Group.
Subjects in First-HD were treated with deutetrabenazine or placebo, starting at 6 mg once per day and titrating weekly to doses of up to 24 mg twice per day (48 mg total maximum daily dose). A total of 90 subjects (45 in each group) were enrolled for evaluation over 13 weeks. Subjects were individually titrated to an optimal dose over up to eight weeks, received maintenance therapy at the optimal dose for four weeks, and were taken off study medication in the final week of the trial.
The primary efficacy endpoint for the study was the change from baseline to maintenance therapy (average of Week 9 and Week 12 values) in the maximal chorea score of the UHDRS. The total maximal score, or TMC, is a clinician-based, quantitative assessment of chorea in seven body regions: face, mouth/tongue, trunk, and the four extremities, with higher scores representing more severe chorea.
The total motor score (TMS) of the UHDRS was prespecified as an additional efficacy endpoint in First-HD. The TMS assesses all the motor features of HD, including items addressing characteristic motor abnormalities other than chorea, such as dystonia, gait, parkinsonism, and postural instability.
The clinical relevance of the change in the TMC score was assessed with four prespecified secondary endpoints that assessed changes from baseline to end of treatment (Week 12). These secondary endpoints were tested in a hierarchical manner: • 1. Treatment success based on patient global impression of change (PGIC); • 2. Treatment success based on clinical global impression of change (CGIC); • 3. Physical Functioning Scale of the SF-36; and • 4. Balance, as assessed by the Berg Balance Test (BBT).
The PGIC and CGIC are single-item questionnaires that ask the subject and investigator, respectively, to assess a subject's overall HD symptoms at specific visits after initiating therapy. Both assessments use a 7-point Likert Scale, with responses ranging from Very Much Worse (−3) to Very Much Improved (+3) to assess overall response to therapy.
Adverse events (AE) and their potential association with treatment were also monitored. Categories of AEs of particular focus included those known to be associated with tetrabenazine use: • Psychiatric disorders: insomnia, depression/agitated depression, abnormal dreams, agitation, anxiety, suicidal ideation, compulsions, impulsive behavior, and sleep disorders; • Nervous system disorders: somnolence, dizziness, akathisia/restlessness, cognitive disorders, drooling, dyskinesia, migraine, headache, loss of consciousness, and syncope (fainting); • General disorders: irritability, fatigue, gait disturbance, chest pain, and hangover; and • Gastrointestinal disorders: diarrhea, dry mouth, constipation, nausea, upper abdominal pain, dyspepsia, frequent bowel movements, gastrointestinal pain, vomiting, dysphagia, flatulence, and salivary hypersecretion.
In addition to AE reporting, rating scales were used to monitor for potential subclinical toxicity due to excessive monoamine depletion. […] These scales applied in First-HD included the Hospital Anxiety and Depression Scale (HADS), the Columbia Suicide Severity Rating Scale (C-SSRS), the Swallowing Disturbance Questionnaire (SDQ), the Unified Parkinson's Disease Rating Scale (dysarthria item) (UPDRS [dysarthria]), the Barnes Akathisia Rating Scale (BARS), and the Epworth Sleepiness Scale (ESS). In addition, the UHDRS, which includes cognitive, behavioral, and functional measures, was performed at key visits.

[2H]C([2H])([2H])Oc1cc2c(cc1OC([2H])([2H])[2H])C1CC(=O)C(CC(C)C)CN1CC2 (stereo not drawn) [deutetrabenazine, (RR, SS)-1,3,4,6,7,11b-hexahydro-9,10-di(methoxy-d3)-3-(2-methylpropyl)-2H-benzo[a]quinolizin-2-one]
Absolute Change in Total Maximal Chorea Score, Least Squares Mean (SD) (Baseline to Maintenance Therapy (mean of Week 9 and Week 12), N = 45): −4.4 (3.0) | Percentage Change in Total Maximal Chorea Score, Least Squares Mean (SD) [1]: −37 (25.7) % | Total Motor Score change, Least Squares Mean (SD) [1]: −7.4 (6.3) | Absolute Change in Total Maximal Chorea Score, Difference in Means (DTBZ − Placebo and 95% CI) (Baseline to Maintenance Therapy, listed as DTBZ): −2.5 (−3.7, −1.3) | Change in BBT Score, Difference in Means (DTBZ-Placebo) (Baseline to Week 12): 1.0 | Change in SF-36 Physical Functioning Score, Difference in Means (DTBZ − Placebo) and 95% CI (Baseline to Week 12): 4.3 | SF-36 physical functioning score compared with placebo-treated subjects (Baseline to Week 12): greater improvement in physical function | Change in Berg Balance Test Score, Least Squares Mean (Baseline to Week 12, N = 45): 2.2 | Change in SF-36 Physical Functioning Score, Least Squares Mean (SD) (Baseline to Week 12, N = 45): 0.74 | Change in SF-36 Physical Functioning Score, Least Squares Mean (SD) (Baseline to Week 12, N = 45, listed as DTBZ): 0.74 (9.773) | Change in SF-36 Physical Functioning Score, Difference in Means (DTBZ − Placebo) and 95% CI (Baseline to Week 12, listed as DTBZ): 4.34 (0.41, 8.27) | CGIC Treatment Success, Difference in Percentages (DTBZ − Placebo) and 95% CI (End of Therapy): 29 (11.4, 46.4) % | PGIC Treatment Success, Difference in Percentages (DTBZ − Placebo) and 95% CI (End of Therapy): 31 (12.4, 49.8) % | Any Nervous System Disorders TEAE (N = 45): 8 (17.8) n (%) | Any Psychiatric Disorders TEAE (N = 45): 8 (17.8) n (%) | Any Serious TEAEs (N = 45): 1 (2.2) n (%) | Any TEAE that led to Withdrawal from the Study (N = 45): 1 (2.2) n (%) | Any TEAEs Resulting in Dose Reduction (N = 45): 3 (6.7) n (%) | Any TEAEs Resulting in Dose Suspension (N = 45): 1 (2.2) n (%) | Any Treatment-Emergent AEs (TEAEs) (N = 45): 60.0 n (%) | TEAE Abdominal pain upper (N = 45): 1 (2.2) n (%) | TEAE Abnormal Dreams (N = 45): 1 (2.2) n (%) | TEAE Agitation (N = 45): 1 (2.2) n (%) | TEAE Akathisia/Restlessness (N = 45): 1 (2.2) n (%) | TEAE Anxiety (N = 45): 1 (2.2) n (%) | TEAE Chest pain (N = 45): 1 (2.2) n (%) | TEAE Cognitive Disorder (N = 45): 1 (2.2) n (%) | TEAE Compulsions (N = 45): 0 n (%) | TEAE Constipation (N = 45): 2 (4.4) n (%) | TEAE Depression/Agitated Depression (N = 45): 2 (4.4) n (%) | TEAE Diarrhea (N = 45): 4 (8.9) n (%) | TEAE Dizziness (N = 45): 2 (4.4) n (%) | TEAE Drooling (N = 45): 1 (2.2) n (%) | TEAE Dry mouth (N = 45): 4 (8.9) n (%) | TEAE Dyskinesia (N = 45): 1 (2.2) n (%) | TEAE Dyspepsia (N = 45): 1 (2.2) n (%) | TEAE Dysphagia (N = 45): 0 n (%) | TEAE Fatigue (N = 45): 3 (6.7) n (%) | TEAE Flatulence (N = 45): 0 n (%) | TEAE Frequent bowel movements (N = 45): 1 (2.2) n (%) | TEAE Gait disturbance (N = 45): 1 (2.2) n (%) | TEAE Gastrointestinal pain (N = 45): 1 (2.2) n (%) | TEAE Hangover (N = 45): 1 (2.2) n (%) | TEAE Headache (N = 45): 0 n (%) | TEAE Impulsive Behavior (N = 45): 0 n (%) | TEAE Insomnia (N = 45): 3 (6.7) n (%) | TEAE Irritability (N = 45): 3 (6.7) n (%) | TEAE Loss of Consciousness (N = 45): 0 n (%) | TEAE Migraine (N = 45): 1 (2.2) n (%) | TEAE Nausea (N = 45): 1 (2.2) n (%) | TEAE Salivary hypersecretion (N = 45): 0 n (%) | TEAE Sleep disorder (N = 45): 0 n (%) | TEAE Somnolence (N = 45): 11.1 n (%) | TEAE Suicidal Ideation (N = 45): 1 (2.2) n (%) | TEAE Syncope (N = 45): 0 n (%) | TEAE Vomiting (N = 45): 0 n (%) | Any Treatment-Emergent AEs (TEAEs) (N = 45, listed as DTBZ): 27 (60.0) n (%) | TEAE Somnolence (N = 45, listed as DTBZ): 5 (11.1) n (%) | Absolute Change in Total Maximal Chorea Score, Difference in Means (DTBZ − Placebo and 95% CI) [2]: −2.5 | Percentage Change in Total Maximal Chorea Score, Difference in Means (DTBZ − Placebo and 95% CI) [2]: −21 (−30.5, −11.1) % | TMC improved [2]: 37% | Total Motor Score change, Difference in Means (DTBZ − Placebo) and 95% CI [2]: −4.0 (−6.5, −1.5) | improvement in the TMS compared with placebo [2]: 4.0 units | reduction in maximal chorea compared with placebo [2]: 21 percentage points | reduction on the TMC score compared with placebo [2]: 2.5 units | total maximal dystonia score improvement [2]: 0.9 (SE 0.24) points | UHDRS Behavioral Assessment (Part III) mean total behavior score compared with the placebo group (difference did not achieve statistical significance): improvement in the in the mean total behavior score | AEs of parkinsonism or dysphagia (in vivo): no AEs of parkinsonism or dysphagia were reported | balance (Berg Balance Test) at end of treatment (in vivo): did not worsen balance | changes in the parkinsonism subscore (UHDRS motor) vs placebo (in vivo): no significant difference | hypotension, dizziness, or orthostasis (vital signs) (in vivo): no evidence that hypotension, dizziness, or orthostasis was associated | parkinsonism subscore of the UHDRS Motor Assessment (Part I) (in vivo): did not identify evidence of parkinsonism | safety scales (HADS, C-SSRS, UPDRS dysarthria, BARS, ESS) (in vivo): did not cause depression, anxiety, suicidality, akathisia, somnolence, or difficulty speaking | somnolence, drug-placebo difference (in vivo): 6.7% | tolerability (in vivo): generally well tolerated | Clinical Global Impression of Change: Treatment Success at the End of Therapy [3]: 42% | Patient Global Impression of Change: Treatment Success at the End of Therapy [3]: 51% | SF-36 physical functioning mean improvement over placebo (subjects with more severe chorea at baseline (TMC>12; n=49)): 7.1 units
